Counter-ions that a name gives are not always drawn. Like-named read-outs stand apart in the source and are kept apart here.
Tests used:
Format in all cases: cell-based, human
[1] = system: p-ERK in NCI-H441 cells (KRAS G12V mutation); assay: Cell p-ERK assay (HTRF) in NCI-H441 cells; details: NCI-H441 cells, 3 h compound incubation, HTRF p-ERK T202/Y204, read-out: H441 p-ERK IC50
Procedure, shortened: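 Cells are plated (AsPC-1 at 10000, NCI-H441 at 20000 per well) and cultured overnight. Next day compound is added in a 3.16-fold dilution series with 0.1% DMSO and left 3 h. After lysis, p-ERK antibodies incubate 4 h before HTRF reading and four-parameter IC50 fitting.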

[2] = system: AsPC-1 cells (KRAS G12D mutation); assay: 3D cell proliferation assay (CellTiter Glo-3D), AsPC-1; details: medium with 2% FBS, read-out: AsPC-1 AP IC50
Excerpt: MIA PaCa-2 cells were purchased from ATCC, Cat. No. CRL-1420; AsPC-1 cells were purchased from ATCC, Cat. No. CRL-1682; NCI-H441 cells were purchased from ATCC, Cat. No. HTB-174: NCI-H1975 cells were purchased from ATCC. Cat. No. CRL-5908; DMEM medium was purchased from Gibco, Cat. No. 11995-065: RPMI-1040 medium was purchased from Gibco. Cat. No. H 18754093; FBS was purchased from Gibco, Cat. No. 10099-141C. penicillin, streptomycin double-antibiotic solution (PS) was purchased from Gibco, Cat. No. 15140-122; Horse serum was purchased from Gibco. Cat. No. 16050130: trypsin (containing EDTA) was purchased from Gibco, Cat. No. 25200-072; DMSO was purchased from VWRAMRESCO, Cat. No. 0231-500ML; 384-well cell culture plates were purchased from Corning, Cat. No. 3830; white-bottomed, opaque 384-well assay plates were purchased from Corning, Cat. No. 3570. CellTiter Glo-3D) kit was purchased from Promega. Cat. No. G9683; cell counter was purchased from CHEMOMETEC, model: NC-200: microplate reader was purchased from PerkinElmer, model: EnVision.
MIA PaCa-2, a human pancreatic cancer cell strain endogenously containing a KRAS^G12C mutation, was cultured in a complete medium containing DMEM+10% FBS+2.5% Horse serum+1% PS. AsPC-1, a human pancreatic cancer cell strain endogenously containing a […] mutation, was cultured in a complete medium containing RPMI-1640+10% FBS+1% PS. NCI-H441 cells, a human lung cancer cell strain endogenously containing a […] mutation, were cultured in a complete medium containing RPMI-1640+10% FBS+1% PS. NCI-H1975, a KRAS wild-type human lung cancer cell strain whose cell proliferation depends on KRAS activity, was cultured in a complete medium containing RPMI-1640+10% FBS+1% PS.
The cells were digested with trypsin (containing EDTA), collected in their respective low-serum complete media containing 2% FBS (for MIA Paca-2 cell culture: DMEM+2% FBS+0.5% Horse serum+1% PS), and counted. After the cell density was adjusted as required, 200 MIA PaCa-2 cells, 800 AsPC-1 cells, 800 NCI-H441 cells, or 400 NCI-H1975 cells per well were seeded into a 384-well cell culture plate, with the volume of the medium in each well being 45 μL. The cell culture plate was incubated in an incubator at 37° C. with 5% CO2, overnight. A series of 3.16-fold gradient dilutions of a 1000× compound stock solution were prepared with DMSO, and then diluted 100-fold with the complete medium containing 2% FBS described above to give 10- compound stock solutions. On the day after cell seeding, 5 μL of the 10- compound stock solution was added to each cell culture well. As a result, the final concentration of the compound in the cell culture well became 1×, and the DMSO content in the well was 0.1%. In addition to the compound-treated wells described above, cell-containing DMSO control wells (with 5 μL of the complete medium containing 1% DMSO added to each well) and cell-free medium control wells (containing 50 μL of the complete medium with 2% FBS) were also set. The culture plate was incubated in an incubator at 37° C. with 5% CO2 for another 5 days, and then 30 μL of CellTiter-Glo working solution was added to each well. The mixture was well mixed, incubated for 30 min, left to stand at room temperature for 30 min, and then transferred to a white-bottomed, opaque 384-well assay plate at 40 μL/well. The chemiluminescence values (RLU) were measured using a microplate reader, and the cell proliferation inhibition rate for each well was calculated: IR (%)=(RLUDMSO—RLUcompound)/(RLUDMSO−RLUblank)×100%, where RLUDMSO is the average RLU signal value from the DMSO control well samples, RLUblank is the average RLU signal value from the medium control well samples, and RLUcompound is the RLU signal value from the compound-treated well samples. […]

[3] = system: NCI-H441 cells; assay: 3D cell proliferation assay (CellTiter Glo-3D), NCI-H441; details: medium with 2% FBS, read-out: H441 AP IC50
Procedure, shortened: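 Cells seeded at 800 per well in medium with 2% FBS, treated next day with 3.16-fold dilution series (0.1% DMSO) for 5 days at 37°C. Viability by CellTiter-Glo 3D luminescence; inhibition normalised to DMSO and cell-free controls, IC50 by four-parameter fit.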

[4] = Homo sapiens, ASPC1, 3D cell proliferation (CellTiter Glo-3D)
[5] = Homo sapiens, NCI-H441, 3D cell proliferation (CellTiter Glo-3D)
[6] = 3D cell proliferation (CellTiter Glo-3D)

| Structure (SMILES) | IC50 ([1]; Homo sapiens, NCI-H441, 3 h) [nM] | IC50 [2, 4] [nM] | IC50 [3, 5] [nM] | IC50 [1] [nM] | IC50 [2, 6] [nM] | IC50 [3, 6] [nM] |
| --- | --- | --- | --- | --- | --- | --- |
| CCn1c(-c2cc(C#CCN3CCC(=O)N(C)CC3)cnc2[C@H](C)OC)c2c3cc(ccc31)-c1csc(n1)C[C@H](Nc1nnc3cc(C)ccn13)C(=O)N1CCC[C@H](N1)C(=O)OCC(C)(C)C2 (atropisomer, axis not shown; (Ra)) [Compound Z957, (6^3S,4S2)-1-(5-(3-(4-methyl-1,4-diazepan-5-one-1-yl)prop-1-yn-1-yl)-(Ra)-2-((S)-1-methoxyethyl)pyridin-3-yl)-1^1-ethyl-10,10-dimethyl-4-((7-methyl-[,2,4]triazolo[4,3-a]pyridin-3-yl)amino)-6^1,6^2,6^3,6^4,6^5,6^6-hexahydro-1^1H-8-oxa-2(4,2)-thiazola-1(5,3)-indola-6(1,3)-pyridazinacycloundecaphane-5,7-dione] |  |  |  | 2.63 | 6.69 | 2.47 |
| CCn1c(-c2cc(C#CCN3CCC(F)(F)CC3)cnc2[C@H](C)OC)c2c3cc(ccc31)-c1csc(n1)C[C@H](Nc1nnc3cc(C)ccn13)C(=O)N1CCC[C@H](N1)C(=O)OCC(C)(C)C2 (atropisomer, axis not shown; (Ra)) [Compound Z958, (6^3S,4S,Z)—(Ra)-1-(5-(3-(4,4-difluoropiperidin-1-yl)prop-1-yn-1-yl)-2-((S)-1-methoxyethyl)pyridin-3-yl)-1^1-ethyl-10,10-dimethyl-4-((7-methyl-[1,2,4]triazolo[4,3-a]pyridin-3-yl)amino)-6^1,6^2,6^3,6^4,6^5,6^6-hexahydro-1^1H-8-oxa-2(4,2)-thiazola-1(5,3)-indola-6(1,3)-pyridazinacycloundecaphane-5,7-dione] | 5.78 | 6.12 | 4.93 |  |  |  |
| CCn1c(-c2cc(C#CCN3CCCOCC3)cnc2[C@H](C)OC)c2c3cc(ccc31)-c1csc(n1)C[C@H](Nc1nnc3cc(C)ccn13)C(=O)N1CCC[C@H](N1)C(=O)OCC(C)(C)C2 [Compound Z955, (6^3S,4S2)-1^2-(5-(3-(1,4-oxazepan-4-yl)prop-1-yn-1-yl)-2-((S)-1-methoxyethyl)pyridin-3-yl)-1^1-ethyl-10,10-dimethyl-4-((7-methyl-[1,2,4]triazolo[4,3-a]pyridin-3-yl)amino)-6^1,6^2,6^3,6^4,6^5,6^6-hexahydro-1^1H-8-oxa-2(4,2)-thiazola-1(5,3)-indola-6(1,3)-pyridazinacycloundecaphane-5J7-dione] | 2.6 | 4.82 | 2.96 |  |  |  |
| CCn1c(-c2cc(C#CC34CCCN3CCC4)cnc2[C@H](C)OC)c2c3cc(ccc31)-c1csc(n1)C[C@H](NC(=O)[C@H]1[C@H](C)[C@@H]1C)C(=O)N1CCC[C@H](N1)C(=O)OCC(C)(C)C2 (atropisomer, axis not shown; (Ra)) [Compound Z794, (1r,2R,3S)—N-((6^3S,4S,Z)—(Ra)-1^2-ethyl-1^2-(2-((S)-1-methoxyethyl)-5-((tetrahydro-1H-pyrrolizin-7a(5H)-yl)ethynyl)pyridin-3-yl)-10,10-dimethyl-5,7-dioxo-6^1,6^2,6^3,6^4,6^5,6^6-hexahydro-1^1H-8-oxa-2(4,2)-thiazola-1(5,3)-indola-6(1,3)-pyridazinacycloundecaphane-4-yl)-2,3-dimethylcyclopropane-1-carboxamide] | 0.49 | 2.07 | 0.66 |  |  |  |

Now from value to molecule:

| IC50 ([1]; Homo sapiens, NCI-H441, 3 h) [nM] | IC50 [2, 4] [nM] | IC50 [3, 5] [nM] | IC50 [1] [nM] | IC50 [2, 6] [nM] | IC50 [3, 6] [nM] | Structure (SMILES) |
| --- | --- | --- | --- | --- | --- | --- |
| 2.12 | 5.6 | 3.46 |  |  |  | CCn1c(-c2cc(C#CCN3CC(C#N)C3)cnc2[C@H](C)OC)c2c3cc(ccc31)-c1csc(n1)C[C@H](Nc1nnc3cc(C)ccn13)C(=O)N1CCC[C@H](N1)C(=O)OCC(C)(C)C2 (atropisomer, axis not shown; (Ra)) [Compound Z974, 1-(3-(5-((6^3S,4S,Z)-1^1-ethyl-10,10-dimethyl-4-((7-methyl-[1,2,4]triazolo[4,3-a]pyridin-3-yl)amino)-5,7-dioxo-6^1,6^2,6^3,6^4,6^5,6^6-hexahydro-1^1H-8-oxa-2(4,2)-thiazola-1(5,3)-indola-6(1,3)-pyridazinacycloundecaphane-1^2-yl)-6-(Ra)—((S)-1-methoxyethyl)pyridin-3-yl)prop-2-yn-1-yl)azetidine-3-carbonitrile] |
|  | 9.41 | 4.91 |  |  |  | CCn1c(-c2cc(C#CCN3CCOC[C@@H](O)C3)cnc2[C@H](C)OC)c2c3cc(ccc31)-c1csc(n1)C[C@H](Nc1nnc3cc(C)ccn13)C(=O)N1CCC[C@H](N1)C(=O)OCC(C)(C)C2 (atropisomer, axis not shown; (Ra)) [Compound Z966, (6^3S,4S,Z)-1^1-ethyl-(Ra)-1^2-(5-(3-((S)-6-hydroxy-1,4-oxazepan-4-yl)prop-1-yn-1-yl)-2-((S)-1-methoxyethyl)pyridin-3-yl)-10,10-dimethyl-4-((7-methyl-[1,2,4]triazolo[4,3-a]pyridin-3-yl)amino)-6^1,6^2,6^3,6^4,6^5,6^6-hexahydro-1^1H-8-oxa-2(4,2)-thiazola-1(5,3)-indola-6(1,3)-pyridazinacycloundecaphane-5,7-dione] |
|  | 565 | 446 |  |  |  | CCn1c(-c2cccnc2[C@H](C)OC)c2c3cc(ccc31)-c1csc(n1)C[C@H](NC(=O)C(C)(C)F)C(=O)N1CCC[C@H](N1)C(=O)OCC(C)(C)C2 (single isomer, unassigned) [Compound Z1] |
|  | 416 | 344 |  |  |  | CCn1c(-c2cc(N3CCN(C)CC3)cnc2[C@H](C)OC)c2c3cc(ccc31)-c1csc(n1)C[C@H](NC1CCN(C)C1=O)C(=O)N1CCC[C@H](N1)C(=O)OCC(C)(C)C2 (atropisomer, axis not shown; (Ra)) [Compound Z70, (6^3S,4S,Z)-1^1-ethyl-(Ra)-1^2-(2-((S)-1-methoxyethyl)-5-(4-methylpiperazin-1-yl)pyridin-3-yl)-10,10-dimethyl-4-((1-methyl-2-oxopyrrolidin-3-yl)amino)-6^1,6^2,6^3,6^4,6^5,6^6-hexahydro-1^1H-8-oxa-2(4,2)-thiazola-1(5,3)-indola-6(1,3)-pyridazinacycloundecaphane-5,7-dione formate] |
|  |  |  | 61.3 | 151 | 125 | CCn1c(-c2cc(C(C)N3CCN(C)CC3)cnc2[C@H](C)OC)c2c3cc(ccc31)-c1csc(n1)C[C@H](NC(=O)[C@H]1[C@H](C)[C@@H]1C)C(=O)N1CCC[C@H](N1)C(=O)OCC1(CC1)C2 (stereo partly drawn) [Compound Z456] |

— patent publication US20260234165A1, “MACROCYCLIC COMPOUNDS, PREPARATION METHOD THEREFOR, AND USE THEREOF” (GENFLEET THERAPEUTICS (SHANGHAI) INC., priority 2004, published 2026)
